Assay results reported in US5945421A, “Dopamine D4 receptor antagonists” (Warner-Lambert Company, priority 1997, dated 1999).
Where two headings read alike, the source gives them in different places.

Columns and labels:
[1] = target: T1, human recombinant dopamine D4.2 receptor (Homo sapiens, UniProt P21917, DEL265-296); experiment: Receptor binding assay, D4.2 dopamine receptor ([3H]spiperone competition, CHO K1 cell membranes)
T1 construct: expressed in transfected cells; host or cells: CHO K1
T1 sequence (P21917 with tags, fused parts or gaps DEL265-296): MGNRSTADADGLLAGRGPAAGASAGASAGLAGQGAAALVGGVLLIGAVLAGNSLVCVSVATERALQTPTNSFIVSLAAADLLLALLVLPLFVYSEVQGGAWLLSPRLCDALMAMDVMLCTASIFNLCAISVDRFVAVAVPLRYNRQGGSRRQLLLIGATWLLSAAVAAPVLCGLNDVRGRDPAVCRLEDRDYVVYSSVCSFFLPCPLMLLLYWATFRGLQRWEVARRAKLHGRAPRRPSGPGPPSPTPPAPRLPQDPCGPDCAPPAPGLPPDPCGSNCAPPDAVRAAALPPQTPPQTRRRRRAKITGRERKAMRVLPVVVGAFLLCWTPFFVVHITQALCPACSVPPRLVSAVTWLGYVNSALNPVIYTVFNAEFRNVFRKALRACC
Source text: (§1) A cell line expressing human dopamine D2 (Long form) receptors was purchased from Oregon Health Sciences University, Portland, Oreg. The D2 receptor cDNA was subcloned into an expression vector, pRc/CMV. The plasmids were transfected by electroporation into CHO K1 cells. A single stable transfectant, resistant to the antibiotic G418, was isolated and selected for use in the binding studies. For D4 binding, CHO K1 cells stably transfected to express the human recombinant dopamine D4.2 receptor subtype, as described by Shih, et al., "The expression and functional characterization of human dopamine D4.2 receptor in CHO K1 cells," Soc. Neurosci., 21(Part 1):621 (1995).
(§2) CHO K1 cells expressing either human D2 and D4.2 receptors were grown in 162 cm^2 culture flasks in F12 medium (Gibco Laboratories, Grand Island, N.Y.) supplemented with 10% fetal bovine serum (FBS, Hyclone, Logan, Utah) in an atmosphere of 5% CO2 /95% air at 37° C. Cells were grown until confluent, after which growth medium was removed and replaced with 0.02% ethylene diamine tetracetate (EDTA) in a phosphate-buffered saline solution (Sigma Chemical Co., St. Louis, Mo.) and scraped from the flasks. The cells were centrifuged at about 1000×g for 10 minutes at 40° C. and then resuspended in TEM buffer (25 mM Tris-HCL, pH 7.4, 5 mM EDTA, and 6 mM MgCl2) for D2 or the D4.2 buffer (50 mM Tris-HCl, pH 7.4, 5 mM EDTA, 1.5 mM CaCl2, 5 mM KCl, and 120 mM NaCl) and homogenized. The membranes were pelleted by centrifugation at 20,000×g at 40° C. for 20 minutes. Then the pellets were resuspended in appropriate buffer at 1 mL/flask and stored at -70° C. until used in the receptor binding assay.
(§3) After 60 minutes incubation at 25° C., the incubations were terminated by rapid filtration through Whatmann GF/B glass fibre filters (soaked for 1 hour in 0.5% polyethylenimine) on a -cell harvester, with three washes of 1 mL ice-cold buffer. Individual filter disks containing the bound ligand were placed in counting vials with 4 mL of scintillation fluid (Ready Gel, Beckman Instrument Inc., Fullerton, Calif.) and then counted in a Beckman LS-6800 liquid scintillation counter at an efficiency of 45%. Nonspecific binding was defined in presence of 1 mM of haloperidol.
(§4) Saturation and competition binding data were analyzed using an iterative nonlinear least-square curve-fitting Ligand program. In competition experiments, apparent Ki values were calculated from IC50 values by method of Cheng and Prusoff, "Relationship between the inhibition constant (Ki) and the concentration of inhibitor which causes 50% inhibition (IC50) of an enzymatic reaction," Biochem. Pharmacol., 22:3099-3108 (1973). Experimental compounds were made up as stock solutions in dimethyl sulfoxide (DMSO). […] Each observation was carried out in triplicate. To allow these calculations, Kd values were measured for the interaction of various ligands with the receptor. […]

[2] = target: human dopamine D2 (Long form) receptors (Homo sapiens, UniProt P14416); experiment: biochemical; format: binding; settings: 0.2 nM [3H]spiperone, CHO K1 membranes, 60 min, 25° C.; apparent Ki from IC50 (Cheng-Prusoff)
Sequence of human dopamine D2 (Long form) receptors (P14416 whole entry): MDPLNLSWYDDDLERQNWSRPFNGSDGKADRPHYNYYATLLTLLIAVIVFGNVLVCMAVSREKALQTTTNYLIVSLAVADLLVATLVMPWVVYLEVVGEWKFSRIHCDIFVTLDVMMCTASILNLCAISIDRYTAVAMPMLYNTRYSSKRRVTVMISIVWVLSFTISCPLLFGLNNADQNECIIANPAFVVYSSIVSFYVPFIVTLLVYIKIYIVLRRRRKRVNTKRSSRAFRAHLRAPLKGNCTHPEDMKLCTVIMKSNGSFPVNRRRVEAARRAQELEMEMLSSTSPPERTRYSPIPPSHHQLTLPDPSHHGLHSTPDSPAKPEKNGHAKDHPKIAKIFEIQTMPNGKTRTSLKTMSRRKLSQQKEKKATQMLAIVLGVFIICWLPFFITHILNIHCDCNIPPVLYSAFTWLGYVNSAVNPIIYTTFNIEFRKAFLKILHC
Source text: as §1, §2, §3, §4

[3] = 0.2 nM [3H]spiperone, CHO K1 membranes, 60 min, 25° C., apparent Ki from IC50 (Cheng-Prusoff), read-out: D4 Ki

| SMILES | Ki [1, 3] [nM] | Ki [2] [nM] | Ki [1] [nM] |
| --- | --- | --- | --- |
| Cc1cccc(N2CCN(Cc3ccc4ccccc4n3)CC2)c1 [2-(4-m-Tolyl-piperazin-1-ylmethyl)-quinoline] | 127 |  |  |
| Cc1ccc(N2CCN(Cc3ccc4ccccc4n3)CC2)cc1 [2-(4-p-Tolyl-piperazin-1-ylmethyl)-quinoline] | 1.55 | 2850 |  |
| O=Cc1ccc(N2CCN(Cc3ccc4ccccc4n3)CC2)cc1Cl [2-Chloro-4-(4-quinolin-2-ylmethyl-piperazin-1-yl)-benzaldehyde] | 87 |  |  |
| Clc1cccc(N2CCN(Cc3ccc4ccccc4n3)CC2)c1Cl [2-[4-(2,3-Dichloro-phenyl)-piperazin-1-ylmethyl]-quinoline] | 59.5 |  |  |
| Clc1ccc(N2CCN(Cc3ccc4ccccc4n3)CC2)cc1Cl [2-[4-(3,4-Dichloro-phenyl)-piperazin-1-ylmethyl]-quinoline] | 61 | > 5880 |  |
| Cc1ccc(N2CCN(Cc3ccc4ccccc4n3)CC2)cc1C [2-[4-(3,4-Dimethyl-phenyl)-piperazin-1-ylmethyl]-quinoline] | 13 | > 5880 |  |
| Clc1cc(Cl)cc(N2CCN(Cc3ccc4ccccc4n3)CC2)c1 [2-[4-(3,5-Dichloro-phenyl)-piperazin-1-ylmethyl]-quinoline] | 121 |  |  |
| Brc1cccc(N2CCN(Cc3ccc4ccccc4n3)CC2)c1 [2-[4-(3-Bromo-phenyl)-piperazin-1-ylmethyl]-quinoline] | 46 |  |  |
| COCc1ccc(N2CCN(Cc3ccc4ccccc4n3)CC2)cc1Cl [2-[4-(3-Chloro-4-methoxymethyl-phenyl)-piperazin-1-ylmethyl]-quinoline] | 31.5 | > 5880 |  |
| Cc1ccc(N2CCN(Cc3ccc4ccccc4n3)CC2)cc1Cl [2-[4-(3-Chloro-4-methyl-phenyl)-piperazin-1-ylmethyl]-quinoline] | 36 | > 5880 |  |
| Clc1cccc(N2CCN(Cc3ccc4ccccc4n3)CC2)c1 [2-[4-(3-Chloro-phenyl)-piperazin-1-ylmethyl]-quinoline] | 2.72 | > 5880 |  |
| CCCc1cccc(N2CCN(Cc3ccc4ccccc4n3)CC2)c1 [2-[4-(3-Propyl-phenyl)-piperazin-1-ylmethyl]-quinoline] | 57 | 5810 |  |
| FC(F)(F)c1cc(N2CCN(Cc3ccc4ccccc4n3)CC2)ccc1Cl [2-[4-(4-Chloro-3-trifluoromethyl-phenyl)-piperazin-1-ylmethyl]-quinoline] | 122 |  |  |
| Fc1ccc(C2=CCN(Cc3ccc4ccccc4n3)CC2)cc1 [2-[4-(4-Fluoro-phenyl)-3,6-dihydro-2H-pyridin-1-ylmethyl]-quinoline] |  | 254 | 14.4 |
| COc1ccc(N2CCN(Cc3ccc4ccccc4n3)CC2)cc1 [2-[4-(4-Methoxy-phenyl)-piperazin-1-ylmethyl]-quinoline] | 101 |  |  |
| N#Cc1ccc(N2CCN(Cc3ccc4ccccc4n3)CC2)cc1Cl [2-chloro-4-(4-quinolin-2-ylmethyl-piperazin-1-yl)-benzonitrile] |  |  | 101 |
| c1ccc(N2CCN(Cc3cnc4ccccc4c3)CC2)cc1 [3-(4-Phenyl-piperazin-1-ylmethyl)-quinoline] | 16 | 1790 |  |
| Cc1ccc(N2CCN(Cc3cnc4ccccc4c3)CC2)cc1 [3-(4-p-Tolyl-piperazin-1-ylmethyl)-quinoline] | 21 | 2160 |  |
| Fc1ccccc1N1CCN(Cc2cnc3ccccc3c2)CC1 [3-[4-(2-Fluoro-phenyl)-piperazin-1-ylmethyl]-quinoline] | 29 | 512 |  |
| c1ccc(N2CCN(Cc3ccc4ncccc4c3)CC2)cc1 [6-(4-Phenyl-piperazin-1-ylmethyl)-quinoline] | 26 | 1380 |  |
| OCc1ccc(N2CCN(Cc3ccc4ccccc4n3)CC2)cc1Br [[2-Bromo-4-(4-quinolin-2-ylmethyl-piperazin-1-yl)-phenyl]-methanol] | 36 | > 5880 |  |
| OCc1ccc(N2CCN(Cc3cnc4ccccc4c3)CC2)cc1Br [[2-Bromo-4-(4-quinolin-3-ylmethyl-piperazin-1-yl)-phenyl]-methanol] | 13.5 | > 5880 |  |
| OCc1ccc(N2CCN(Cc3ccc4ccccc4n3)CC2)cc1Cl [[2-Chloro-4-(4-quinolin-2-ylmethyl-piperazin-1-yl)-phenyl]-methanol] | 8.27 | > 10000 |  |
| OCc1ccc(N2CCN(Cc3ccc4ccccc4n3)CC2)cc1F [[2-Fluoro-4-(4-quinolin-2-ylmethyl-piperazin-1-yl)-phenyl]-methanol] | 87 |  |  |
| OCc1ccc(N2CCN(Cc3cnc4ccccc4c3)CC2)cc1F [[2-Fluoro-4-(4-quinolin-3-ylmethyl-piperazin-1-yl)-phenyl]-methanol] | 8.8 | > 5880 |  |
| OCc1ccc(N2CCN(Cc3ccc4ccccc4n3)CC2)cc1 [[4-(4-Quinolin-2-ylmethyl-piperazin-1-yl)-phenyl]-methanol] | 139 | > 5880 |  |
